Tests used:
[1] = test system: M. furfur; assay: Zone of inhibition of M. furfur in SLES, comparison with Undecylenic amido propyl betain (Example 7); assay type: cell-based
Description: Undecylenic amido propyl betain is a reported anti-dandruff product, so Undecylenic amidopropyl dimethyl Hydroxy ethyl ammonium undecylenate was compared. Carried out of zone of inhibition of M. furfur against 1, 2%, 5% & 7% Undecylenic amido propyl betain in SLES and compared it with Undecylenic amido propyl dimethyl Hydroxy ethyl ammonium undecylenate

[2] = test system: M. furfur; assay: Zone of inhibition against M. furfur, comparison with other known anti-dandruff agents (Example 5); assay type: cell-based
Description: M. furfur is one of the microorganism, which causes dandruff Method of Analysis: Zone of Inhibition Principle: Larger the zone of inhibition greater is the anti-dandruff activity.

[3] = Viscosity booster effect in shampoo formulation; details: 15% active sodium lauryl ether sulfate, 2% booster

Row | Compound | Comments ([2]; Concent. 0.5%) | Zone of inhibition in mm ([2]; Concent. 0.5%) [mm] | Comments ([2]; Concent. 1%) | Zone of inhibition in mm ([2]; Concent. 1%) [mm] | Comments ([2]; Concent. 1.5%) | Zone of inhibition in mm ([2]; Concent. 1.5%) [mm] | Comments ([2]; Concent. 2%) | Zone of inhibition in mm ([2]; Concent. 2%) [mm] | also measured
1 | C=CCCCCCCCCC(=O)NCCC[N+](C)(C)CC(=O)[O-] [Undecylenic amidopropyl betaine] |  |  |  |  |  |  |  |  | Comments ([1]; 1%): Less; Zone of inhibition in mm ([1]; 1%): 3 mm; Comments ([1]; 2%): Less; Zone of inhibition in mm ([1]; 2%): 6 mm; Comments ([1]; 5%): Less; Zone of inhibition in mm ([1]; 5%): 6 mm; Comments ([1]; 7%): Effective; Zone of inhibition in mm ([1]; 7%): 8 mm
2 | C=CCCCCCCCCC(=O)NCCC[N+](C)(C)CCOCCO.[Cl-] [Undecylenic amidopropyl dimethyl Hydroxy ethoxy ethyl ammonium chloride] | Less | 2 | Less | 3 | Less | 6 | Effective | 8 | 
3 | C=CCCCCCCCCC(=O)NCCO [Undecylenic mono ethanolamide] | Not effective | 0 | Less | 2 | Less | 4 | Less | 6 | 
4 | Cocomonoethanolamide [CMEA] |  |  |  |  |  |  |  |  | Viscosity in cps at 28° C. ([3]; Sodium chloride 0.5%): 55 cps; Viscosity in cps at 28° C. ([3]; Sodium chloride 1.0%): 600 cps; Viscosity in cps at 28° C. ([3]; Sodium chloride 1.5%): 3000 cps; Viscosity in cps at 28° C. ([3]; Sodium chloride 2.0%): 11000 cps; Viscosity in cps at 28° C. ([3]; Sodium chloride 2.5%): 17000 cps
5 | Undecylenic monoethanol amido sulfosuccinate | Not effective | 0 | Not effective | 0 | Not effective | 0 | Not effective | 0 | 
